This note sets out measurements from patent publication US9770026B2, “Substituted pyrimidine compound and uses thereof” (Shenyang Sinochem Agrochemicals R&D Co., Ltd., priority 2012, dated 2017).

One assay has as its system corn rust. Put plainly: protectant activity in vivo against corn rust.
Assay [1] relates to Green peach aphids (Myzus Persicae Sulzer). The experiment in a line: bioactivity test against green peach aphid, airbrush foliar spray. Format: in vivo. To be noted: for control (test results against green peach aphid): death rate after 48 hrs. In outline: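 Aphids (15-30 per cabbage leaf disc) on moist filter paper were airbrush-sprayed at 10 psi, 0.5 mL, with compound from acetone:methanol (1:1) diluted in water with 0.1% tween 80. Held at 25±1 C, 60±5% RH; survivors counted after 48 hrs to give death rates.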

A further assay relates to armyworm. The experiment in a line: bioactivity test against armyworm, airbrush spray. To be noted: for control (test results against armyworm): mortality after 72 h. Format: in vivo.
The test system of the next assay is wheat powdery mildew. The experiment in a line: protectant activity in vivo against wheat powdery mildew.
The test system of a further assay is cucumber downy mildew. Put plainly: protectant activity in vivo against cucumber downy mildew.
A further assay deals with Diamond back moth. The experiment in a line: insecticidal activity against diamond back moth, airbrush spray. To be noted: for control (test results against diamond back moth): mortality after 72 hrs. Format: in vivo. The procedure, abridged: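 Airbrush leaf-disc spray test: both faces of 2 cm cabbage discs received 0.5 ml of test solution at 0.7 kg/cm^2. Solutions were made in acetone:methanol (1:1) and brought to concentration with 0.1% Tween 80 in water. Ten second-instar larvae per disc, triplicates, were held at 25° C and 60˜70% R.H., with mortality recorded at 72 hrs.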

The subject of another assay is carmine spider mite. Put plainly: bioactivity test against carmine spider mite, airbrush spray. Format: in vivo. To be noted: for control against carmine spider mite: mortality after 72 hrs. In outline:
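Broadbean seedlings infested with adult mites were sprayed with compound (acetone/methanol stock diluted in 0.1% Tween 80 water) by airbrush at 0.7 kg/cm^2, 0.5 ml. Three replicates were run. Mortality was scored after 72 hrs.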

As for `CCc1ncnc(NCCc2ccc(Oc3ccc(C#N)cc3F)cc2)c1Cl` [II-482], the “control effect against corn rust (%)” value is 100% in the assay with corn rust (6.25 mg/L, protectant activity); 100% in the assay on corn rust (25 mg/L, protectant activity); 100% in the assay on corn rust (100 mg/L, protectant activity); 100% in the assay with corn rust (400 mg/L, protectant activity). Also, the “protectant activity against corn rust in vivo” value in the assay with corn rust (6.25 ppm), in the assay with corn rust (25 ppm), in the assay on corn rust (100 ppm) and in the assay with corn rust (400 ppm) was 100% in each case. For the same molecule, the “Insecticidal activity against peach aphid (%)” value in assay [1] (1.25 mg/L, contrastive test) stood at 100%; in assay [1] (2.5 mg/L, contrastive test), 100%; in assay [1] (5 mg/L, contrastive test) it was 100%; in assay [1] (10 mg/L, contrastive test), 100%; in assay [1] (100 mg/L, contrastive test) it was 100%; in assay [1] (600 mg/L, contrastive test), 100%. For the same molecule, the “control (test results against green peach aphid)” value in assay [1] (2.5 ppm), in assay [1] (5 ppm), in assay [1] (10 ppm), in assay [1] (100 ppm) and in assay [1] (600 ppm) was 100% throughout. In addition, the “Insecticidal activity against armyworm (%)” value in the assay with armyworm (10 mg/L) is given as 80%; in the assay on armyworm (100 mg/L), 100%; in the assay with armyworm (600 mg/L) it was 100%. For the same molecule, the “control (test results against armyworm)” value with armyworm (100 ppm) and in the assay on armyworm (600 ppm) was 100% in each case. For the same molecule, the “control effect against wheat powdery mildew (%)” value in the assay on wheat powdery mildew (6.25 mg/L, protectant activity) was determined as 98%; with wheat powdery mildew (25 mg/L, protectant activity) it was 100%; in the assay on wheat powdery mildew (100 mg/L, protectant activity), 100%; in the assay on wheat powdery mildew (400 mg/L, protectant activity), 100%. Besides, the “protectant activity against wheat powdery mildew in vivo” value with wheat powdery mildew (25 ppm), in the assay on wheat powdery mildew (100 ppm) and in the assay on wheat powdery mildew (400 ppm) was 100% each time. In addition, the “protectant activity against cucumber downy mildew in vivo” value in the assay with cucumber downy mildew (25 ppm), in the assay on cucumber downy mildew (50 ppm), with cucumber downy mildew (100 ppm) and with cucumber downy mildew (400 ppm) was 100% in each case. In addition, the “Insecticidal activity against diamond back moth (%)” value with Diamond back moth (10 mg/L) came out at 60%; in the assay on Diamond back moth (100 mg/L), 100%; in the assay with Diamond back moth (600 mg/L) it was 100%. Further, the “control (test results against diamond back moth)” value in the assay with Diamond back moth (100 ppm) and with Diamond back moth (600 ppm) was 100% throughout. In addition, the “Insecticidal activity against carmine spider mite (% )” value (“Insecticidal activity … (% )” for short) is listed as 93% with carmine spider mite (2.5 mg/L); 100% in the assay with carmine spider mite (5 mg/L); 100% with carmine spider mite (10 mg/L, contrastive test); 100% in the assay with carmine spider mite (100 mg/L, contrastive test); 100% in the assay with carmine spider mite (600 mg/L, contrastive test). Further, the “control against carmine spider mite” value with carmine spider mite (5 ppm), in the assay on carmine spider mite (10 ppm), with carmine spider mite (100 ppm) and with carmine spider mite (600 ppm) was 100% each time.

Consider `Cc1ncnc(NCc2ccc(Oc3ncc(C(F)(F)F)cc3Cl)cc2)c1Cl` [CK23, reference compound], for which the pest or weed control at 6.25 µg/mL in the assay on corn rust (Zea mays, 168 h, read-out: control effect against corn rust (%), 6.25 mg/L, protectant activity) was 0%; in the assay on wheat powdery mildew (Triticum aestivum, 168 h, read-out: control effect against wheat powdery mildew (%), 6.25 mg/L, protectant activity), 0%. Besides, the pest or weed control at 25 µg/mL in the assay on corn rust (Zea mays, 168 h, read-out: control effect against corn rust (%), 25 mg/L, protectant activity) came to 0%; in the assay on wheat powdery mildew (Triticum aestivum, 168 h, read-out: control effect against wheat powdery mildew (%), 25 mg/L, protectant activity), 0%; in the assay on cucumber downy mildew (Cucumis sativus, 168 h, read-out: control effect against cucumber downy mildew (%), 25 mg/L, protectant activity) it was 0%. Moreover, the pest or weed control at 100 µg/mL is 0% in the assay with corn rust (Zea mays, 168 h, read-out: control effect against corn rust (%), 100 mg/L, protectant activity); 0% in the assay on wheat powdery mildew (Triticum aestivum, 168 h, read-out: control effect against wheat powdery mildew (%), 100 mg/L, protectant activity); 0% with cucumber downy mildew (Cucumis sativus, 168 h, read-out: control effect against cucumber downy mildew (%), 100 mg/L, protectant activity). Moreover, the pest or weed control at 400 µg/mL with corn rust (Zea mays, 168 h, read-out: control effect against corn rust (%), 400 mg/L, protectant activity) was determined as 100%. Also, the pest or weed control at 600 µg/mL in assay [1] (Myzus persicae, foliar, 48 h, 600 mg/L, contrastive test, read-out: Insecticidal activity against peach aphid (%)) amounted to 0%; in the assay on armyworm (72 h, 600 mg/L, read-out: Insecticidal activity against armyworm (%)), 0%; in the assay with Diamond back moth (72 h, 600 mg/L), 0%. The “control effect against wheat powdery mildew (%)” value with wheat powdery mildew (400 mg/L, protectant activity) is reported as 100%. Also, in the assay on cucumber downy mildew (400 mg/L, protectant activity), the “control effect against cucumber downy mildew (%)” value stood at 100%. The pest or weed control at 50 µg/mL with cucumber downy mildew (Cucumis sativus, 168 h, read-out: control effect against cucumber downy mildew (%), 50 mg/L, protectant activity) was 0%. The “Insecticidal activity … (% )” value with carmine spider mite (600 mg/L, contrastive test) is reported as 64%.

On to `CCc1ncnc(NCCc2ccc(Oc3ccc(C)cc3)nc2)c1Cl` [III-196], for which, in the assay on corn rust (400 ppm), the “protectant activity against corn rust in vivo” value amounted to 100%. Further, the “control (test results against green peach aphid)” value in assay [1] (100 ppm) and in assay [1] (600 ppm) was 100% throughout. Also, the “control (test results against armyworm)” value in the assay on armyworm (600 ppm) was 100%. The “protectant activity against wheat powdery mildew in vivo” value in the assay on wheat powdery mildew (400 ppm) was 100%. Besides, the “control effect against cucumber downy mildew (%)” value in the assay on cucumber downy mildew (6.25 mg/L, protectant activity) amounted to 85%; with cucumber downy mildew (12.5 mg/L, protectant activity), 85%; in the assay with cucumber downy mildew (25 mg/L, protectant activity), 100%; in the assay on cucumber downy mildew (50 mg/L, protectant activity), 100%; in the assay on cucumber downy mildew (100 mg/L, protectant activity), 100%; with cucumber downy mildew (400 mg/L, protectant activity), 100%. For the same molecule, the “protectant activity against cucumber downy mildew in vivo” value with cucumber downy mildew (25 ppm), in the assay on cucumber downy mildew (50 ppm), in the assay on cucumber downy mildew (100 ppm) and in the assay with cucumber downy mildew (400 ppm) was 100% in each case. For the same molecule, the “Insecticidal activity against diamond back moth (%)” value with Diamond back moth (100 mg/L) and with Diamond back moth (600 mg/L) was 100% throughout. For the same molecule, the “control (test results against diamond back moth)” value with Diamond back moth (100 ppm) and in the assay on Diamond back moth (600 ppm) was 100% each time. Further, the “control against carmine spider mite” value in the assay on carmine spider mite (600 ppm) was determined as 100%.

`CCc1ncnc(NCCc2ccc(Oc3ccc(OC)cc3)nc2)c1Cl` [III-199]: the “protectant activity against corn rust in vivo” value in the assay with corn rust (400 ppm) stood at 100%. Further, the “control (test results against green peach aphid)” value in assay [1] (100 ppm) and in assay [1] (600 ppm) was 100% in each case. The “Insecticidal activity against armyworm (%)” value was determined as 64% in the assay with armyworm (10 mg/L), 100% in the assay with armyworm (100 mg/L) and 100% in the assay on armyworm (600 mg/L). Further, the “control (test results against armyworm)” value in the assay on armyworm (100 ppm) and with armyworm (600 ppm) was 100% each time. Also, in the assay on wheat powdery mildew (400 ppm), the “protectant activity against wheat powdery mildew in vivo” value came to 100%. Also, the “protectant activity against cucumber downy mildew in vivo” value with cucumber downy mildew (100 ppm) and in the assay with cucumber downy mildew (400 ppm) was 100% each time. Moreover, the “control (test results against diamond back moth)” value with Diamond back moth (600 ppm) was 100%. The “Insecticidal activity … (% )” value is recorded as 87% in the assay on carmine spider mite (10 mg/L, contrastive test); 100% in the assay on carmine spider mite (100 mg/L, contrastive test); 100% in the assay on carmine spider mite (600 mg/L, contrastive test). For the same molecule, the “control against carmine spider mite” value in the assay with carmine spider mite (100 ppm) and in the assay with carmine spider mite (600 ppm) was 100% each time.

On to `COc1ccc(Oc2ccc(CCNc3ncnc(C)c3Cl)cn2)cc1` [III-19], for which the “protectant activity against corn rust in vivo” value in the assay with corn rust (400 ppm) turned out to be 100%. Moreover, the “control (test results against green peach aphid)” value in assay [1] (600 ppm) was 100%. Also, in the assay with armyworm (600 ppm), the “control (test results against armyworm)” value was 100%. For the same molecule, the “protectant activity against wheat powdery mildew in vivo” value in the assay on wheat powdery mildew (400 ppm) was determined as 100%. The “control effect against cucumber downy mildew (%)” value is recorded as 95% with cucumber downy mildew (6.25 mg/L, protectant activity); 98% in the assay on cucumber downy mildew (12.5 mg/L, protectant activity); 100% with cucumber downy mildew (25 mg/L, protectant activity); 100% in the assay with cucumber downy mildew (50 mg/L, protectant activity); 100% with cucumber downy mildew (100 mg/L, protectant activity); 100% in the assay with cucumber downy mildew (400 mg/L, protectant activity). Moreover, the “protectant activity against cucumber downy mildew in vivo” value in the assay on cucumber downy mildew (25 ppm), with cucumber downy mildew (50 ppm), in the assay on cucumber downy mildew (100 ppm) and in the assay on cucumber downy mildew (400 ppm) was 100% throughout. Besides, in the assay on Diamond back moth (600 ppm), the “control (test results against diamond back moth)” value worked out at 100%. Besides, in the assay on carmine spider mite (600 ppm), the “control against carmine spider mite” value was found to be 100%.

As for `CCc1ncnc(NC(C)c2ccc(Oc3ccccc3)nc2)c1Cl` (centres unmarked) [CK8, reference compound], the “control effect against corn rust (%)” value in the assay with corn rust (400 mg/L, protectant activity) is 50%. The “Insecticidal activity against peach aphid (%)” value in assay [1] (600 mg/L, contrastive test) is on record as 0%. The “Insecticidal activity against armyworm (%)” value in the assay with armyworm (600 mg/L) was determined as 17%. For the same molecule, the “control effect against wheat powdery mildew (%)” value with wheat powdery mildew (400 mg/L, protectant activity) was 0%. Moreover, the “control effect against cucumber downy mildew (%)” value with cucumber downy mildew (25 mg/L, protectant activity) was 75%; in the assay on cucumber downy mildew (50 mg/L, protectant activity) it was 80%; in the assay on cucumber downy mildew (100 mg/L, protectant activity) it was 95%; with cucumber downy mildew (400 mg/L, protectant activity), 98%. Further, in the assay on Diamond back moth (600 mg/L), the “Insecticidal activity against diamond back moth (%)” value was found to be 33%. Moreover, in the assay with carmine spider mite (600 mg/L, contrastive test), the “Insecticidal activity … (% )” value worked out at 54%.
